From article PMC12562276, “Effects of Intramuscular Vasopressin on Pharmacokinetics and Pharmacodynamics in Healthy Neonatal Piglets: A Dose–Response Study” (Children, 2025)
Read-outs that look alike come from different tables or passages of the source.

What was measured:
[1] = tested on: isolated working rat heart; details: during normoxia (not during hypoxia); cited from earlier work
Text: Through its vasoconstrictor effects, vasopressin increases SVR, thereby increasing arterial blood pressure. […] In an anesthetized open-chest dog model, Nakano administered various doses of vasopressin and reported a dose-related relationship between increasing doses and r ...

[2] = Plasma vasopressin concentrations and pharmacokinetics after IV or IM vasopressin; type: in vivo, neonatal piglets; details: for level at 1 min / level at 5 min / level at 10 min / AUC(0-t): pig, plasma, n = 5/group, median (IQR); for level at 1 min: 1 min after administration; for level at 1 min / level at 5 min / level at 10 min: arterial blood, read-out: Plasma vasopressin concentration; for level at 5 min: 5 min after administration; for level at 10 min: 10 min after administration; for AUC(0-t): neonatal piglets, read-out: Area under the curve from baseline to 10 min (AUC0–10) (converted)
Description: (§1) Following surgical instrumentation and stabilization, a consecutively numbered, sealed brown envelope containing the group allocation was opened (Figure 1). Piglets were randomized into three groups: 0.4 IU/kg IV vasopressin 4 IU/kg IM vasopressin, or 8 IU/kg IM vasopressin. Piglets that were randomized to “IM” were administered one dose intramuscularly in the left inner thigh muscle while piglets randomized to “IV” were administered one dose via the femoral venous catheter followed with a 3 mL normal saline bolus. Arterial blood was collected before drug administration (baseline = time point “0 min”), 1, 2, 3, 4, 5, and 10 min after drug administration. Following final collection of blood, piglets were euthanized with an intravenous overdose of sodium pentobarbital and autopsies of IM injection sites were conducted to assess local tissue damage […].
Demographics of study piglets were recorded. Transonic flow probes, heart rate, and pressure transducer outputs, and Millar catheter were digitized and recorded with LabChart® 8.1.30, programming software (ADInstruments, Houston, TX, USA). Plasma vasopressin concentrations and pharmacokinetic parameters were quantified and analyzed as previously described. Reported plasma vasopressin concentrations only represent exogenous arginine vasopressin. Since pigs produce lysine vasopressin, endogenous vasopressin concentrations could not be quantified.
The data are presented as mean (standard deviation—SD) for normally distributed continuous variables and median (interquartile range—IQR) when the distribution was skewed. The data was tested for normality (Shapiro–Wilk and Kolmogorov–Smirnov test) and compared using either Student’s t-test (data normally distributed), Rank Sum if data were skewed, one- and two-way ANOVA with Dunnett post-test, or Fisher’s exact test for categorical variables. Both Hedges’ g and Cliff’s delta (δ) were reported as standardized measures of effect size as appropriate for parametric and non-parametric data, respectively. Pearson or Spearman’s correlations were reported for parametric or non-parametric data, respectively. p-values are 2-sided and p < 0.05 was considered statistically significant. Statistical analyses were performed with SigmaPlot (Systat Software Inc., San Jose, CA, USA) and R version 4.3.2.

healthy neonatal piglets [3] = assay: Hemodynamic and cardiac function parameters after IV or IM vasopressin; type: in vivo; details: for Changes in hemodynamic parameters: n = 5
Description: Piglets were instrumented as previously described with modifications. Following induction of anesthesia using isoflurane, piglets underwent a tracheostomy for intubation. Pressure-controlled ventilation (Sechrist Infant Ventilator Model IV-100; Sechrist Industries, Anaheim, CA, USA) was commenced at a respiratory rate of 16–20 breaths/min and pressure of 20/5 cmH2O. Oxygen saturation was maintained within 90–100%, while glucose was provided via an IV infusion of 5% dextrose at 10 mL/kg/hr. IV propofol (5–10 mg/kg/h) and morphine (0.1 mg/kg/h) were provided to maintain anaesthesia, and additional IV doses of propofol (1–2 mg/kg) and morphine (0.05–0.1 mg/kg) were administered as needed (i.e., to maintain adequate sedation/pain medication as determined by movement/pain response). Piglets’ normothermic body temperature of 38.5–39.5 °C was maintained with a heating pad and overhead warmer.
5-French Argyle® (Klein-Baker Medical Inc. San Antonio, TX, USA) double-lumen and single-lumen catheters were inserted via the right femoral vein and artery, respectively. The femoral venous catheter was used for administration of fluids and medications and the arterial catheter for continuous arterial blood pressure monitoring in addition to arterial blood gas measurements. A real-time ultrasonic flow probe (2 mm; Transonic Systems Inc., Ithica, NY, USA) encircled the right common carotid artery to measure cerebral blood flow. A Millar® catheter (MPVS Ultra1, ADInstruments, Houston, TX, USA) was inserted into the left ventricle via the left common carotid artery for continuous measurement of stroke volume, ejection fraction, end-diastolic and -systolic volumes, left ventricular pressure, and left ventricular contractile function (dP/dtmax, dP/dtmin).
Following surgical instrumentation, piglets were placed in the supine position and allowed to recover from surgical instrumentation until baseline hemodynamic measures were stable (minimum one hour). Ventilator rate was adjusted to maintain the partial arterial CO2 between 35–45 mmHg, as determined by periodic arterial blood gas analysis. A Hewlett Packard 78833B monitor (Hewlett Packard Co., Palo Alto, CA, USA) was used for the continuous measurement of heart rate, mean systemic arterial pressure (MAP), systemic systolic and diastolic arterial pressure, and percutaneous oxygen saturation throughout the experiment.
Cerebral oxygenation (crSO2) was measured using the Invos^TM Cerebral/Somatic Oximeter Monitor (Invos 5100, Somanetics Corp., Troy, MI, USA), which calculates crSO2 and expresses values as the percentage of oxygenated haemoglobin (oxygenated haemoglobin/total haemoglobin). The sensors were placed on the right forehead of the piglet and secured with wrap and tape. A slim cap provided light shielding. Regional oxygen saturation values were recorded every second at a sample rate of […].
as §1
Demographics of study piglets were recorded. […]

dogs = details: IV vasopressin, cited from earlier work
Text: In the current study, we determined the optimal IM vasopressin dose to be 8 IU/kg, as there were significant changes in hemodynamics and left ventricular contractile function following its administration, while there were little to no hemodynamic changes following 4 IU/kg IM vasopressin administration. […] Even if IV access can be achieved before two minutes, IV concentra ...

healthy neonatal piglets [4] = assay: Autopsy of IM injection sites for local tissue damage; type: in vivo; details: autopsies post-euthanasia; IM 4 or 8 IU/kg, left inner thigh muscle
Description: as §1

[5] = 0.4 IU/kg IV, anesthetized piglets
[6] = 8 IU/kg IM, anesthetized piglets

## NC(=O)CC[C@@H]1NC(=O)[C@H](Cc2ccccc2)NC(=O)[C@H](Cc2ccc(O)cc2)NC(=O)[C@@H](N)CSSC[C@@H](C(=O)N2CCC[C@H]2C(=O)N[C@@H](CCCN=C(N)N)C(=O)NCC(N)=O)NC(=O)[C@H](CC(N)=O)NC1=O [vasopressin, arginine vasopressin]
[1]
  dP/dtmax: significantly decreased
[2]; 4 IU/kg IM vs 0.4 IU/kg IV, p < 0.001
  Plasma concentrations compared with IV vasopressin: significantly lower
[2]; 8 IU/kg IM, two minutes after administration
  Plasma concentrations compared with IV vasopressin: comparable to IV vasopressin
[2]; [5]
  level at 1 min: 2.2 ng/mL
  level at 5 min: 1.74 ng/mL
  level at 10 min: 1.34 ng/mL
[2]; 0.4 IU/kg IV
  AUC(0-t): 0.266 ng·h/mL
[2]; 4 IU/kg IM
  AUC(0-t): 0.155 ng·h/mL
[2]; 8 IU/kg IM, anesthetized piglets 1–3 days old, exogenous arginine vasopressin only
  level at 1 min: 0.39 ng/mL
[2]; [6]
  level at 5 min: 2.64 ng/mL
  level at 10 min: 2.83 ng/mL
[2]; 8 IU/kg IM
  AUC(0-t): 0.339 ng·h/mL
Healthy neonatal piglets [3]; 0.4 IU/kg IV
  Brain oxygen saturation compared to baseline: Significantly lower
  dP/dtmin: no significant changes
Healthy neonatal piglets [3]; 0.4 IU/kg IV, 1–3 min after administration
  Stroke volume, cardiac output and ejection fraction: significantly lower
Healthy neonatal piglets [3]; 0.4 IU/kg IV, one minute after administration
  Stroke volume and cardiac output: significantly lower
Healthy neonatal piglets [3]; 0.4 IU/kg IV, throughout the experimental period, p = 0.032
  Carotid blood flow compared with 8 IU/kg IM: much lower
Healthy neonatal piglets [3]; 4 IU/kg IM
  Changes in hemodynamic parameters: failed to produce significant changes
Healthy neonatal piglets [3]; 8 IU/kg IM
  dP/dtmax (left ventricular contractile function): significantly reduced
  dP/dtmin: no significant changes
  Changes in hemodynamic parameters: induced significant hemodynamic changes
Healthy neonatal piglets [3]; 8 IU/kg IM, vs baseline
  MAP, systolic and diastolic pressure: significant increases
dogs; baroreceptor-denervated dogs
  Decrease in cardiac output: −22.8 (3.0) mL/kg min
  Decrease in heart rate: −10 (5) beats/minute
dogs; healthy dogs
  Decrease in cardiac output: −39.2 (3.8) mL/kg min
  Decrease in heart rate: −22 (4) beats/minute
Healthy neonatal piglets [4]
  Local tissue damage at the IM injection sites: did not reveal any significant local tissue damage
